Laboratory results published in US10849907B2, “Imidazopyridine derivatives and the use thereof as medicament” (Boehringer Ingelheim International GmbH, priority 2017, dated 2020).

Each molecule was assayed against T1, NMDA NR1/NR2B receptor (Homo sapiens, UniProt Q05586+Q13224) (assay: In vitro NMDA NR1/NR2b cell assay (FLIPR, intracellular calcium induced by glycine/glutamate)). Conditions: HEK293 cells expressing NMDA NR1/NR2B, 20 μM glycine, 1 μM glutamate, compounds of the invention (Table 1).
T1 construct: host or cells: HEK293, tetracycline-inducible expression
Assay type: cell-based
Protocol: A human HEK293 cell line with tetracyclin-inducible expression of NMDA NR1/NR2B receptor was used as a test system for compound efficacy and potency. The cell line was purchased from ChanTest, Catalog # CT6121. Compound activity was determined by measuring the effect of compounds on intracellular calcium concentration induced by glycine/glutamate agonism in a FLIPRtetra system (Molecular Devices).
The cells were obtained as frozen cells in cryo-vials and stored until use at −150° C. Cells were grown in culture medium (DMEM/F12, 10% FBS, 5 μg/mL Blasticidin, 150 μg/mL Zeozin, 500 μg/mL Geneticin). […] For sub-culturing the cells were detached from flasks by Versene. For the assay, cells were detached, washed twice with induction medium (DMEM/F12 without glutamine, 10% FBS, 2 μg/mL Tetracycline, 2 mM Ketamine) and seeded to 384 well pure coat amine plates (BD 359324, 50000 cells per well in 50 μl) 48 h prior to assay in induction medium.
The test compounds were dissolved in 100% DMSO at a concentration of 10 mM and in a first step diluted in DMSO to a concentration of 5 mM, followed by serial dilution steps in 100% DMSO. Dilution factor and number of dilution steps may vary according to needs. Typically 8 different concentrations by 1:5 dilutions were prepared in duplicate, further intermediate dilutions (1:37.5) of the substances were carried out with aqueous assay buffer (137 mM NaCl, 4 mM KCl, 1.8 mM CaCl, 10 mM HEPES, 10 mM Glucose, pH 7.4) resulting in a compound concentration 3 times above the final test concentration and DMSO at 2.7% resulting in 0.9% final DMSO concentration in the assay.
At the assay day cells were washed 3× with assay puffer, 10 μL buffer remained in the wells after washing. 10 μL Ca kit loading buffer (AAT Bioquest) was added to the cells and the plates were incubated with lid for 60 minutes at r.t. 20 μl assay buffer containing 60 μM glycine (20 μM final) and 3 μM glutamate (1 μM final) was added to column 1-23. Fluorescence (indicating the calcium influx as a result of the NR1/NR2B ion channel activation) was read on the FLIPRtetra device for 60 seconds to monitor the glutamate induced effects. After 2 minutes 20 μL of compound or controls (row 1-22) in assay buffer were carefully added to the wells. […] The average of 2 measurements at 5 minutes and 5 min 10 seconds after compound addition is calculated and further used for IC50 calculations. Each assay microtiter plate contained wells (in column 23 or 24) with DMSO controls instead of compound as controls for glycine/glutamate induced fluorescence (high controls) and wells with 1 μM of a reference NR2b NAM as low controls (Compound 22; reference: Layton, Mark E et al, ACS Chemical Neuroscience 2011, 2(7), 352-362).
The output file of the reader contains the well number and measured average fluorescence units. For data evaluation and calculation, the measurement of the low control was set as 0% control and the measurement of the high control was set as 100% control. The IC50 values were calculated using the standard 4 parameter logistic regression formula. Calculation: [y=(a−d)/(1+(x/c)^b)+d], a=low value, d=high value; x=conc M; c=IC50 M; b=slope.

T1 sequence (Q13224 27-1484, other chains not shown): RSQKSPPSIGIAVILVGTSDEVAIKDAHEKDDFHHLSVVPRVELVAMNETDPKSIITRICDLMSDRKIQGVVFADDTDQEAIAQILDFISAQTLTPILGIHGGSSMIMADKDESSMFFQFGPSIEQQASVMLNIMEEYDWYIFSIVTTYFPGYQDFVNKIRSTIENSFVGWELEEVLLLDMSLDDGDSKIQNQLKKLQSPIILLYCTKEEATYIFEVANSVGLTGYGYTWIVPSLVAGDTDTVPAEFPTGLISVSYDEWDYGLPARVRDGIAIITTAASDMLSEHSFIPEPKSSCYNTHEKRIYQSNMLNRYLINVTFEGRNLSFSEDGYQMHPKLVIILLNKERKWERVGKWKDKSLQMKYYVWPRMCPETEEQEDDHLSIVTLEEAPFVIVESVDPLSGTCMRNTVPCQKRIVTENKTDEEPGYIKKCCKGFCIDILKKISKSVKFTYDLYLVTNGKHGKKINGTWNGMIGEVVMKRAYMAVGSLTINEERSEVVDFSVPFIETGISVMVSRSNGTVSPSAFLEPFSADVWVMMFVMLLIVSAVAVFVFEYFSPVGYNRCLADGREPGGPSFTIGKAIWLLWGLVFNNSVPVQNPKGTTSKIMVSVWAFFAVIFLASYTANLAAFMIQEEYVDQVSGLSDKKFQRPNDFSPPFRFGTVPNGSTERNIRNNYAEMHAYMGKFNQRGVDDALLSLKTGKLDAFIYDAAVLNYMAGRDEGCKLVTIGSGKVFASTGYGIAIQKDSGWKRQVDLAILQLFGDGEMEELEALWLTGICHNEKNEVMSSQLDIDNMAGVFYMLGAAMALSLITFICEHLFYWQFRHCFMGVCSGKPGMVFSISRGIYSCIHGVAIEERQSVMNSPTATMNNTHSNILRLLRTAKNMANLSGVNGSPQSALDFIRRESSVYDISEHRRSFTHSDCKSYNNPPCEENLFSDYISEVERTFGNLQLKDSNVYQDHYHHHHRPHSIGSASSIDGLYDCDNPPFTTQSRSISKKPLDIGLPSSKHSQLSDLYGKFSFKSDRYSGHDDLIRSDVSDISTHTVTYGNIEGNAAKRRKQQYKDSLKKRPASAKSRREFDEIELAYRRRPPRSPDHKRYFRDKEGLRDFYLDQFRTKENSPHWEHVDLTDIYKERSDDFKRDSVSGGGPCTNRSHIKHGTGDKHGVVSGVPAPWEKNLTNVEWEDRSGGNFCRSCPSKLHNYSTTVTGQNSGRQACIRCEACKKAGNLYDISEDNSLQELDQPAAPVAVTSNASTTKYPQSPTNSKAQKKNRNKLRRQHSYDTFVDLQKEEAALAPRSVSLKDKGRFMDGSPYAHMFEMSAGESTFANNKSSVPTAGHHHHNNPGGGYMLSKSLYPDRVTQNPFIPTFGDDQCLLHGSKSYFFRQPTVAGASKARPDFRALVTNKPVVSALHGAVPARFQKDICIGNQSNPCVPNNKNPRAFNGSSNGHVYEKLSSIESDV

Row | SMILES | IC50
1 | Cc1cccc(F)c1COC(=O)N1CCO[C@H](c2nc3cccnc3[nH]2)C1 [Example 10] | 156 nM
2 | O=C(OCc1ccc(F)cc1Cl)N1CCO[C@H](c2nc3cccnc3[nH]2)C1 [Example 13] | 122 nM
3 | O=C(OCc1cccc(F)c1)N1CCO[C@H](c2nc3cccnc3[nH]2)C1 [Example 1] | 409 nM
4 | Cc1ccc(COC(=O)N2CCO[C@H](c3nc4cccnc4[nH]3)C2)c(F)c1 [Example 11] | 55 nM
5 | Cc1ccccc1COC(=O)N1CCO[C@H](c2nc3cccnc3[nH]2)C1 [Example 8] | 404 nM
6 | Cc1ccc(COC(=O)N2CCO[C@H](c3nc4cccnc4[nH]3)C2)cc1F [Example 12] | 73 nM
7 | O=C(OCc1ccc(F)cc1)N1CCO[C@H](c2nc3cccnc3[nH]2)C1 [Example 2] | 83 nM

The next lines start with the values.

Row | IC50 | SMILES
8 | 128 nM | O=C(OCc1ccc(F)cc1F)N1CCO[C@H](c2nc3cccnc3[nH]2)C1 [Example 19]
9 | 76 nM | O=C(OCc1ccccc1)N1CCO[C@H](c2nc3cccnc3[nH]2)C1 [Example 17]
10 | 42 nM | O=C(OCc1ccc(Cl)cc1)N1CCO[C@H](c2nc3cccnc3[nH]2)C1 [Example 28]
11 | 132 nM | Cc1ccc(COC(=O)N2CCO[C@H](c3nc4cc(F)cnc4[nH]3)C2)cc1 [Example 31]
12 | 104 nM | O=C(OCc1c(F)cccc1F)N1CCO[C@H](c2nc3cccnc3[nH]2)C1 [Example 16]
13 | 54 nM | Cc1ccc(COC(=O)N2CCO[C@H](c3nc4cccnc4[nH]3)C2)cc1 [Example 18]
14 | 95 nM | O=C(OCc1ccccc1F)N1CCO[C@H](c2nc3cccnc3[nH]2)C1 [Example 27]
15 | 78 nM | O=C(OCc1ccc(C(F)F)cc1)N1CCO[C@H](c2nc3cccnc3[nH]2)C1 [Example 26]
16 | 121 nM | O=C(OCc1ccccc1Cl)N1CCO[C@H](c2nc3cccnc3[nH]2)C1 [Example 14]
17 | 93 nM | O=C(OCc1cccc(F)c1F)N1CCO[C@H](c2nc3cccnc3[nH]2)C1 [Example 15]
